Assay results from patent US8715927B2, “Inhibition of DNA polymerases to augment chemotherapeutic and antimicrobial agents” (priority 2008, dated 2014).

Assays:
COS-7 cells = test: Mutagenesis assay: site-specifically modified pMS2 shuttle vector replicated in COS-7 cells; format: cell-based; conditions: for Deletions / Single base substitutions G to A / Single base substitutions G to C / Single base substitutions G to T: number among colonies scored, pMS2 vector, COS-7 cells; for Frequency of mutations: pMS2 vector replicated in COS-7 cells
Description: Mutagenesis assays were performed using a previously developed pMS2 shuttle vector/COS-7 system (Moriya, Proc. Natl. Acad. Sci. U.S.A. 90:1122-1126, 1993). In its single-stranded form, the pMS2 vector contains a hairpin loop with an internal EcoRV restriction site. Incorporation of control non-damaged oligodeoxynucleotides into this site was accomplished in the presence of a scaffold DNA according to a published method (Kanuri et al., J. Biol. Chem. 277:18257-18265, 2002). To create a single-stranded pMS2 containing site-specific interstrand crosslink, the procedure was modified as described below.
Oligodeoxynucleotides containing a model acrolein-derived site-specific interstrand crosslink (FIG. 1A and FIG. 1B) were designed in such a way that peripheral regions of the longer strands (36-mer) were complementary to the vector sequences immediately adjacent to the EcoRV site. A circular single-stranded pMS2 vector (approximately 15 pmol) was digested with 40 units of EcoRV (New England BioLabs) for 3 hours at 37° C. to generate a linear DNA. 5′-phosphorylated crosslinked inserts (60 pmol) were added to the linear single-stranded pMS2 (15 pmol), and ligated using 60 units of T4 DNA ligase (New England BioLabs) for 48 hours at 4° C. To obtain double-stranded pMS2 vectors, the 36-mer strand of the crosslink or the scaffold oligodeoxynucleotide in control DNA was extended using 5 units of T4 DNA polymerase (New England BioLabs) and 1 mM dNTPs at 37° C. for 1 hour. A newly-synthesized strand was concomitantly sealed using 5 units of T4 DNA ligase (New England BioLabs). The creation of double-stranded pMS2 was verified by PstI (New England BioLabs) digestion.
Transfection of pMS2 vector into COS-7 cells, isolation of progeny DNA, selection of individual clones by E. coli transformation, and differential hybridization analyses were performed as previously described (Moriya, Proc. Natl. Acad. Sci. U.S.A. 90:1122-1126, 1993; Kanuri et al., J. Biol. Chem. 277:18257-18265, 2002).
Previous studies have established that in human cells, crotonaldehyde-mediated N^2-N^2-guanine ICLs were repaired mostly (>94%) in an error-free manner (Liu et al., Biochemistry 45:12898-12905, 2006). Since acrolein-mediated ICLs are structurally similar to crotonaldehyde-mediated ICLs, it is possible that model acrolein-derived N^2-N^2-guanine ICL (FIG. 1A) would not be highly mutagenic when plasmid vectors containing this lesion were replicated in mammalian cells. In order to test this, oligodeoxynucleotides were constructed to contain a site-specific ICL in either CpG or GpC sequence contexts (FIG. 1B) and engineered into a double-stranded DNA shuttle vector (pMS2). The vector was replicated in COS-7 cells, and progeny DNAs were analyzed to determine frequency and types of mutations. In both the CpG and GpC sequence contexts, the mutation frequencies were very low, 3.0% and 3.2%, respectively (Table 2).

avidin = avidin (Gallus gallus, UniProt P02701); conditions: non-covalent interaction; cited from earlier work
E. coli DNA pol II = target: T1, E. coli DNA pol II (Escherichia coli, UniProt P21189); test: Primer extension assay by E. coli DNA pol II; format: biochemical; conditions: pol II 0.3 nM, time course
T1 construct: made in house
Description: Control, non-damaged and ICL-containing DNA substrates were used to analyze replication from a −10 primer by pol II (FIG. 7A) and pol IV (FIGS. 7B and 7C). Using the non-damaged primer-template substrates pol II catalyzed a highly processive polymerization to yield full-length primer extension products. […] ICL bypass by pol II was not observed even when reactions were conducted with increased enzyme concentrations (up to a 1000-fold excess relative to DNA substrate).

E. coli DNA pol IV = E. coli DNA pol IV (Escherichia coli, UniProt Q47155); conditions: −10 primer, 30-minute reactions, 37° C.
Sequence of E. coli DNA pol IV (Q47155 whole entry): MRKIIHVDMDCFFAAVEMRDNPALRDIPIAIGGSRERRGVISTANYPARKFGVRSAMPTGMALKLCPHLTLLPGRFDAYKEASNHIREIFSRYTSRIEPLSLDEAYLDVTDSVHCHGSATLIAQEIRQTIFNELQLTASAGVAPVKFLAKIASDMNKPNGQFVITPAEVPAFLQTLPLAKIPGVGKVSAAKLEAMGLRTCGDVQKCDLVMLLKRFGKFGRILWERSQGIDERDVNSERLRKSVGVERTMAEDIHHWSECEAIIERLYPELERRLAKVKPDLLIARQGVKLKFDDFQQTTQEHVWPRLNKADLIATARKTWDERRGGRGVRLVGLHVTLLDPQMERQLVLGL
Description: The primer extension assays were conducted in a 10 μl reaction volume containing pol II or pol IV, 5 nM primer-template, 5 mM MgCl2, 100 μM dNTPs, 25 mM Tris-HCl (pH 7.5), 25 mM DTT, 0.5 mg/ml BSA and 10% glycerol. Reactions were carried out at 37° C. for 30 minutes followed by termination of the reaction with a solution containing 95% formamide, 10 mM EDTA and 0.03% (w/v) xylene cyanol and 0.03% (w/v) bromophenol blue. DNA replication products were separated through a 15% denaturing polyacrylamide gel at 2000 V and later analyzed on a Phosphor Imager (GE Healthcare).

T1 sequence (P21189 whole entry): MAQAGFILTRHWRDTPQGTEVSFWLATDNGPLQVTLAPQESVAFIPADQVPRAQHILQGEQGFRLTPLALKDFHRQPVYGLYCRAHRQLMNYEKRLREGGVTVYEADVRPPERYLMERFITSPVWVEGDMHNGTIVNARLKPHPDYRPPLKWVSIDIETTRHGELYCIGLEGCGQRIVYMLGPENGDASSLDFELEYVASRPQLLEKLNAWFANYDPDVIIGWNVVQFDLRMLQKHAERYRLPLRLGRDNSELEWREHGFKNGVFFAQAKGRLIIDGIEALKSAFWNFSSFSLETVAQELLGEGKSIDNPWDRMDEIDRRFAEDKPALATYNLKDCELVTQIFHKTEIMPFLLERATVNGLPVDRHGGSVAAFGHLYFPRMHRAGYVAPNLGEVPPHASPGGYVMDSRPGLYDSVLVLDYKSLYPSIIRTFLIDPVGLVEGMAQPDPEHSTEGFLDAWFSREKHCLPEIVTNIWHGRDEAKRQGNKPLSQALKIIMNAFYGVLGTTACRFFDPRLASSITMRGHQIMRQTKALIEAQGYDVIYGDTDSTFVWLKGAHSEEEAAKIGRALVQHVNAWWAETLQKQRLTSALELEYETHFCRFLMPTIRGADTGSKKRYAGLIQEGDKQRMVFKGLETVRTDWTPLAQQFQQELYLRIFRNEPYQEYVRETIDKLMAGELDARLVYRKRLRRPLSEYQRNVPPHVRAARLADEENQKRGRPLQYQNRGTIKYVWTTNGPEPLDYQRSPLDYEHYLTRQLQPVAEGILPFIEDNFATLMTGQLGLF
Sequence of avidin (P02701 25-152, species assumed): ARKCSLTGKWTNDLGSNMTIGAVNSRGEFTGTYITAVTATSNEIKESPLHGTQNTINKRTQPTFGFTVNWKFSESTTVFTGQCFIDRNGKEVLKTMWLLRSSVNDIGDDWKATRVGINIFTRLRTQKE

Row | Compound | Deletions (COS-7 cells) | Single base substitutions G to A (COS-7 cells) | Single base substitutions G to C (COS-7 cells) | Single base substitutions G to T (COS-7 cells) | Frequency of mutations (COS-7 cells) [%] | Ka of avidin-biotin complex (avidin) | replication from −10 primer by pol II (E. coli DNA pol II) | replication by increasing concentrations of pol IV (E. coli DNA pol IV)
1 | CpG ICL: SEQ ID NO: 1 and 2 joined by G-(CH2)3-G; model acrolein-derived N2-N2-guanine ICL in CpG context (chain 1 GCTAGCGAGTCC; chain 2 CCTGCAAGCGATGGACTCGCTAGCATCGCTGGTACC; listed as DNA, chemistry not fully specified) | 0 | 0 | 0 | 2 | 3.0 |  |  | 
2 | O=C(O)CCCC[C@@H]1SC[C@@H]2NC(=O)N[C@@H]21 [biotin] |  |  |  |  |  | 10^15 M^−1 |  | 
3 | GpC ICL: SEQ ID NO: 3 and 4 joined by G-(CH2)3-G; model acrolein-derived N2-N2-guanine ICL in GpC context (chain 1 GCTGAGCGATCC; chain 2 CCTGCAAGCGATGGATCGCTCAGCATCGCTGGTACC; listed as DNA, chemistry not fully specified) | 5 | 4 | 1 | 1 | 3.2 |  |  | 
4 | ICL1: crosslinked oligodeoxynucleotide, SEQ ID NO: 5 and 6 joined by G-(CH2)3-G; models DNA product of dual incision around the ICL (chain 1 GATGCTANCYTGTC; chain 2 AGCGATAGACACYATAGCATCGCTGGTACCGACTCG; crosslinked oligodeoxynucleotide, G-(CH2)3-G interstrand crosslink, further chemistry not given here) |  |  |  |  |  |  | unable to carry out effective strand-displacement synthesis | very poor strand displacement synthesis
